Results as given in US20260062422A1 (Halda Therapeutics OpCo, Inc., priority 2022, published 2026).

Legend:
[1] = test system: T-Rex 293 cell line SC3 cells having increased expression of androgen receptor protein due to exposure to doxycycline; experiment: Cellular growth inhibition, T-Rex 293 SC3 cells with doxycycline (androgen receptor induced), CellTiter-Glo; assay type: cell-based; details: T-Rex 293 SC3 cells with 10 ng/mL doxycycline (increased androgen receptor expression), 72 hours
Outline: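 GI50 came from a four-parameter fit of CellTiter-Glo 2.0 luminescence after 72 h compound exposure (0.5% DMSO, 37 °C), dosing 24 h post-seeding. SC3 clone cells (2500/well), transfected with wild-type androgen receptor, grew in charcoal-stripped serum medium lacking phenol red, induced with 10 ng/mL doxycycline or left uninduced.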

[2] = test system: T-Rex 293 cell line SC cells lacking increased expression of progesterone receptor isoform B protein; experiment: Cellular growth inhibition, T-Rex 293 SC cells without doxycycline, Example 45; assay type: cell-based; details: T-Rex 293 SC cells not exposed to doxycycline, 72 hours treatment, CellTiter-Glo 2.0

| Structure (SMILES) | GI50 [1] [nM] | GI50 [2] [nM] |
| --- | --- | --- |
| Cc1sc2c(c1C)C(c1ccc(CC3CC4(CCN(c5ccc(C(=O)N[C@H]6C(C)(C)[C@H](Oc7ccc(C#N)c(Cl)c7)C6(C)C)cn5)CC4)C3)cc1)=N[C@@H](Cc1ncco1)c1nnc(C)n1-2 [Compound I-143] | < 500 | < 500 |
| Cc1sc2c(c1C)C(c1ccc(N3CC(N4CCN(c5ncc(C(=O)N[C@H]6C(C)(C)[C@H](Oc7ccc(C#N)c(Cl)c7)C6(C)C)cn5)CC4)C3)cc1)=NC(Cc1ncco1)c1nnc(C)n1-2 (stereo partly shown) [Compound I-208] | < 500 | < 500 |
